Columns and labels:
[1] = system: L-amino acid amide asymmetric hydrolase (transformant strain pMCA1/JM109 cells); experiment: Asymmetric hydrolysis of racemic amino acid amides by using the transformant pMCA1/JM109; type: biochemical, Xanthobacter flavus; settings: 0.1% substrate, 50 mM phosphate buffer pH 7.0, 30° C.
Procedure: A medium having a composition as shown in the following Table 3 was prepared, and 200 mL of the medium was poured into 1-L conical flask and sterilized. After that, the medium was added with 50 μg/mL ampicillin and then inoculated with the transformant strain pMCA1/JM109, followed by shaking culture at 37° C. for 15 hours. Subsequently, the culture solution was subjected to centrifugation, to thereby obtain living cells corresponding to 0.1 g of dry cells.
Enzymatic reactions were performed by using a culture solution of the transformant strain pMCA 1/JM109 which had been cultured in the same manner as in Example 7 and a racemic mixture of various amino acid amides as a substrate. Each of the substrate compound was dissolved into 50 mM phosphate buffer (pH 7.0) such that the substrate concentration was adjusted to 0.1%, and the substrate solution was added with the cells to perform an enzymatic reaction at 30° C. […] In any of the reactions, selectivity of hydrolysis is selective to an L-form, and optical purity of the produced L-amino acid was not less than 98% e.e.

X. flavus living cells = experiment: Asymmetric hydrolysis of 2-methylcysteine amide racemic mixture by using a wild-type microorganism; type: biochemical, Xanthobacter flavus; settings: for 2-methylcysteine produced: 30° C., 24 hours, HPLC condition B; for optical purity of the L-amino acid: supernatant, HPLC condition A
Procedure: A medium having a composition as shown in the following Table 5 was prepared, and 200 mL of the medium was poured into a 1-L conical flask and sterilized. After that, X. flavus was inoculated thereto and shaking culture was performed at 30° C. for 170 hours. Subsequently, the culture solution was subjected to centrifugation, to thereby obtain living cells corresponding to 0.1 g of dry cells.
10.0 g (58.6 mmol) of racemic mixture of 2-methylcysteine amide hydrochloride was dissolved into 300 mL of 50 mM phosphate buffer (pH 7.0). After that, the mixture was poured into a 500-mL flask, which was added with an aqueous manganese chloride solution such that the concentration of a divalent Mn ion became 10 ppm, and further added with the living cells corresponding to 0.01 g of dry cells, followed by stirring culture at 30° C. for 24 hours under a nitrogen stream to allow a hydrolysis reaction to proceed. After completion of the reaction, the reaction solution was subjected to centrifugation to remove the cells, and the supernatant was analyzed under the HPLC condition B as shown in the following Table 6.
10 L of the culture solution obtained after culture in the medium composition in Comparative Example 1 was subjected to centrifugation, to thereby obtain living cells corresponding to 5 g of dry cells of X. flavus. 10.0 g (58.6 mmol) of a racemic mixture of 2-methylcysteine amide hydrochloride was dissolved into 300 mL of 50 mM phosphate buffer (pH 7.0). After that, the mixture was poured into 500-mL flask, which was added with an aqueous manganese chloride solution such that the concentration of a divalent Mn ion became 10 ppm, and further added with the living cells corresponding to 5 g of dry cells, followed by stirring culture at 30° C. for 24 hours under a nitrogen stream to allow a hydrolysis reaction to proceed. After completion of the reaction, the reaction solution was subjected to centrifugation to remove the cells therefrom, and the supernatant was analyzed under the HPLC condition B. As a result, it was confirmed that 28.2 mmol of 2-methylcysteine was produced. In addition, the supernatant was analyzed under the HPLC condition A, and as a result, the optical purity of the L-amino acid was not less than 98% e.e.
A biochemical asymmetric hydrolysis reaction was performed in the same manner as in Comparative Example 2 except that the aqueous manganese chloride solution was not added. The reaction was performed at 30° C. for 24 hours. After completion of the reaction, the reaction solution was subjected to centrifugation to remove the cells therefrom, and then the supernatant was analyzed under the HPLC condition B. As a result, it was confirmed that 13.9 mmol of 2-methylcysteine was produced. In addition, the supernatant was analyzed under the HPLC condition A, and as a result, the optical purity of the L-amino acid was not less than 98% e.e.

[2] = substrate weight/dry cell weight 0.01, reaction time 24 hr
[3] = 5 g dry cells, no manganese chloride added
[4] = substrate weight/dry cell weight 0.01, reaction time 5 hr
[5] = substrate weight/dry cell weight 0.1, reaction time 24 hr

Compound: Allicin amide ethylene acetal
- Reaction rate [1, 2]: 44.3%

Compound: C[C@](N)(CS)C(N)=O.Cl (racemic) [2-methylcysteine amide, 2-methylcysteine amide hydrochloride]
- 2-methylcysteine produced (X. flavus living cells; 0.01 g dry cells, 58.6 mmol substrate, 10 ppm divalent Mn ion): no 2-methylcysteine as a product was observed
- 2-methylcysteine produced (X. flavus living cells; 5 g dry cells, 58.6 mmol substrate, 10 ppm divalent Mn ion): 28.2 mmol
- optical purity of the L-amino acid (X. flavus living cells; 5 g dry cells, 10 ppm divalent Mn ion): not less than 98 % e.e.
- 2-methylcysteine produced (X. flavus living cells; [3]): 13.9 mmol
- optical purity of the L-amino acid (X. flavus living cells; [3]): not less than 98 % e.e.

Compound: CC(C)[C@H](N)C(N)=O (racemic) [Valine amide]
- Reaction rate [1, 2]: 44.3%

Compound: CC(C)(S)[C@H](N)C(N)=O (racemic) [penicillamine amide]
- Reaction rate [1, 4]: 44.9%

Compound: CC(C)(C)[C@H](N)C(N)=O (racemic) [t-leucine amide]
- Reaction rate [1, 5]: 44.4%

Compound: CC1(C)SCNC1C(N)=O (stereo not shown) [5,5-dimethylthiazolidin-4-carboxylate amide]
- Reaction rate [1, 5]: 47.0%

Compound: NC(=O)[C@@H](N)Cc1ccccc1 (racemic) [Phenylalanine amide]
- Reaction rate [1, 4]: 47.8%

Compound: NC(=O)C(N)c1ccccc1 (racemic) [Phenylglycine amide]
- Reaction rate [1, 4]: 48.8%

Compound: CCC(N)C(N)=O (stereo not shown) [2-amino butyrate amide]
- Reaction rate ([1]; substrate weight/dry cell weight 0.1, reaction time 5 hr): 49.2%
